PMC11191600 (ACS chemical neuroscience, 2024)
In brackets after ≈: the same amount, converted by molar mass. Like-named read-outs stand apart in the source and are kept apart here.

Key:
[1] = Plasma protein binding, equilibrium dialysis, human plasma; assay type: in vitro ADME
[2] = Plasma protein binding, equilibrium dialysis, rat plasma; assay type: in vitro ADME
[3] = target: T1, human dopamine D4.4 receptor (Homo sapiens, UniProt P21917); experiment: Human dopamine D4.4 receptor radioligand binding assay (Eurofins); design: % Inhibition at D4.4: dose or concentration left out as unconfirmed; conditions: for % Inhibition at 10 μM D4.4: [3H]Spiperone binding; for inhibition at 10 µM: read-out: % Inhibition at 10 μM D4.4
T1 sequence (P21917 1-419): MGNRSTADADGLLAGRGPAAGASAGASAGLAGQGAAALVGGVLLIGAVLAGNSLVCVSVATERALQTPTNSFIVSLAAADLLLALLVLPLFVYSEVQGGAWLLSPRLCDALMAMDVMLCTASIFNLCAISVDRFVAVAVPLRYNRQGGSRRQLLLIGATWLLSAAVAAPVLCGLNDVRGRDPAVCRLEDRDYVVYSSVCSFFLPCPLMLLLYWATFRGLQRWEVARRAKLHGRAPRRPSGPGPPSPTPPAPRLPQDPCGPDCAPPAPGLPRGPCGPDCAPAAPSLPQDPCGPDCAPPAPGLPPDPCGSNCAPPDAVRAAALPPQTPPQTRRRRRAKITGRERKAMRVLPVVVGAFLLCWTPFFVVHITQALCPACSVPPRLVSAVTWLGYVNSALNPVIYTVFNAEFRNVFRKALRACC

[4] = target: human dopamine D2S receptor (Homo sapiens, UniProt P14416); experiment: Human dopamine D2S receptor radioligand binding assay (Eurofins); conditions: for % Inhibition at 10 μM D2S: [3H]Spiperone binding, Eurofins Discovery
[5] = Microsomal stability, human hepatic microsomes; assay type: in vitro ADME; conditions: predicted hepatic clearance
[6] = Microsomal stability, rat hepatic microsomes; assay type: in vitro ADME; conditions: predicted hepatic clearance
[7] = target: human dopamine D1 receptor (Homo sapiens, UniProt P21728); experiment: Human dopamine D1 receptor radioligand binding assay (Eurofins); conditions: for % Inhibition at 10 μM D1: [3H]SCH-23390 binding, Eurofins Discovery
[8] = target: Human recombinant dopamine D2L receptor (Homo sapiens, UniProt P14416); experiment: Human dopamine D2L receptor radioligand binding assay (Eurofins); conditions: for % Inhibition at 10 μM D2L: [3H]Spiperone binding, Eurofins Discovery
[9] = Kinetic solubility (shake flask, McIlvaine buffer); assay type: physicochemical; conditions: for Solubility pH = 2.2 / Solubility pH = 6.8: kinetic, 100 µM, 18 hours room temperature; for Solubility pH = 2.2: McIlvaine buffer pH 2.2; for Solubility pH = 6.8: McIlvaine buffer pH 6.8; for solubility at 18 h: McIlvaine buffer, kinetic from dmso stock
[10] = In vivo pharmacokinetics, intravenous cassette dosing in rats; design: species or system male Sprague-Dawley rats; conditions: rat; for AUC (area under the curve) / CLp (plasma clearance) / Vss (volume of distribution at steady-state) / t1/2 (terminal phase plasma half-life): intravenous 0.2 mg/kg, cassette; for in vivo clearance relative to hepatic blood flow (superhepatic clearance): intravenous dosing
[11] = target: human dopamine D3 receptor (Homo sapiens, UniProt P35462); experiment: Human dopamine D3 receptor radioligand binding assay (Eurofins); conditions: for % Inhibition at 10 μM D3: [3H]Spiperone binding, Eurofins Discovery
[12] = Metabolite profiling in human hepatocytes; assay type: in vitro ADME; conditions: 4 h
[13] = Metabolite profiling in rat hepatocytes; assay type: in vitro ADME; conditions: 4 h
[14] = read-out: D4.4 IC50, Eurofins Discovery
[15] = read-out: D4.4 Ki, Eurofins Discovery

human dopamine D3 receptor, sequence (P35462 whole entry): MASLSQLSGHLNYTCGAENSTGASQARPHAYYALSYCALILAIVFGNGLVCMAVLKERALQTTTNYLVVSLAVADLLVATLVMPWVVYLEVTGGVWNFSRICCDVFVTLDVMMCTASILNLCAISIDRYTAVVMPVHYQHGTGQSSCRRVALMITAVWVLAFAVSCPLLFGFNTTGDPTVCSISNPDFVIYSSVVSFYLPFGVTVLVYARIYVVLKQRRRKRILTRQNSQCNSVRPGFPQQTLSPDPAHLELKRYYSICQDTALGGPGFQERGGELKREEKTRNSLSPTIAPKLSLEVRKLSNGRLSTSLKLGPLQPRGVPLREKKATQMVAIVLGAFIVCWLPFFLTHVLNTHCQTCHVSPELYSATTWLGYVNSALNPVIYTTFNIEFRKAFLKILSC
Human recombinant dopamine D2L receptor, sequence (P14416 whole entry): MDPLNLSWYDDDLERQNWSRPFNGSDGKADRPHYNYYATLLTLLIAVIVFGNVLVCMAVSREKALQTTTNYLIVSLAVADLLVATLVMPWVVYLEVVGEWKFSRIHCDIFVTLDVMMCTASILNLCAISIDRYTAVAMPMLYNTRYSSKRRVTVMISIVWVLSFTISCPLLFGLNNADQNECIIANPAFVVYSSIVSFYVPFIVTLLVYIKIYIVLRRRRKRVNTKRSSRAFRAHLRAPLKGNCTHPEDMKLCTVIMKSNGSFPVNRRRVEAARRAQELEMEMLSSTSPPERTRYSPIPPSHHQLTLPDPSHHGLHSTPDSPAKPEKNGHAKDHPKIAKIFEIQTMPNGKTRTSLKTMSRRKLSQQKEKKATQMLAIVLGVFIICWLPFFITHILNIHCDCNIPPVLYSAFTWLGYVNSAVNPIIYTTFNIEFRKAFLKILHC
human dopamine D1 receptor, sequence (P21728 whole entry): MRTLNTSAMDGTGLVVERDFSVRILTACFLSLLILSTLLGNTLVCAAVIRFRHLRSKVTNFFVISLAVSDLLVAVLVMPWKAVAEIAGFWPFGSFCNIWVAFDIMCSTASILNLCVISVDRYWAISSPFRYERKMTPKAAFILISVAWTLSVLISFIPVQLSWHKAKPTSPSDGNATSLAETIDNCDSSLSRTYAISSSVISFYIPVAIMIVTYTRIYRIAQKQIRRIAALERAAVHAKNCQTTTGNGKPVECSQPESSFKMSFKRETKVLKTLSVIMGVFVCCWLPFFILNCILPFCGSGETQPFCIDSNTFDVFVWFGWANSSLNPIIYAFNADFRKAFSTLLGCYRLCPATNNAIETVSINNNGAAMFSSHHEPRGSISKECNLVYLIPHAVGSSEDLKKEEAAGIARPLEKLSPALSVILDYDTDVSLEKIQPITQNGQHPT
human dopamine D2S receptor, sequence (P14416 1-414 isoform P14416-2): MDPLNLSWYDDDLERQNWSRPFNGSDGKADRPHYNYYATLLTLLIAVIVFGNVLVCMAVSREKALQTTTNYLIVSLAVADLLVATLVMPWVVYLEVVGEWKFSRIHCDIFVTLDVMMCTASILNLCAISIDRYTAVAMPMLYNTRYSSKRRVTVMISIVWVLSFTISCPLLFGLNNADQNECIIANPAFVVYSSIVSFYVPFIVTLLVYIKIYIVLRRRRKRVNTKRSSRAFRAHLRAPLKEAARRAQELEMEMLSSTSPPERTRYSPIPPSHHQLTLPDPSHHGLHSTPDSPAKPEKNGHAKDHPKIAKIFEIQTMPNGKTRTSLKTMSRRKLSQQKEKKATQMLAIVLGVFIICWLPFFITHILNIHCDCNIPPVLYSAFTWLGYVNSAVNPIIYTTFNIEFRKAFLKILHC

| Compound | fu,plasma human (fraction unbound) [1] | fu,plasma rat (fraction unbound) [2] | % Inhibition at 10 μM D4.4 ([3]; Eurofins Discovery) [%] | IC50 [3, 14] [µM] | Ki [3, 15] [µM] | % Inhibition at 10 μM D2S [4] [%] | CLH human (hepatic clearance) [5] [L/h/kg] | CLH rat (hepatic clearance) [6] [L/h/kg] | % Inhibition at 10 μM D1 [7] [%] | % Inhibition at 10 μM D2L [8] [%] | Solubility pH = 2.2 [9] [µM] | Solubility pH = 6.8 [9] [µM] | % Inhibition at 10 μM D3 [11] [%] | also measured |
| --- | --- | --- | --- | --- | --- | --- | --- | --- | --- | --- | --- | --- | --- | --- |
| O=C(c1ccc2c(c1)OCO2)N1CC2(CCN(Cc3c[nH]c4cc(F)ccc34)CC2)C1 [Compound 20] | 0.10 | 0.23 | 95 | 0.084 | 0.023 | 12 | 0.822 | 2.17 | 16 | 18 | 86.4 | 82.7 | 14 | AUC (area under the curve) [10]: 0.0264 µg·h/mL; CLp (plasma clearance) [10]: 7.56 L/h/kg; Vss (volume of distribution at steady-state) [10]: 44.4 L/kg; t1/2 (terminal phase plasma half-life) [10]: 4.55 h; in vivo clearance relative to hepatic blood flow (superhepatic clearance) [10]: > 100 % Qh |
| Cc1ccccc1C(=O)N1CC2(CCN(Cc3c[nH]c4cc(F)ccc34)CC2)C1 [Compound 33] | 0.19 | 0.26 | 93 | 0.21 | 0.059 | 0 | 0.96 | 2.34 | 9 | −7 | 92.9 | 87.7 | 11 | piperidine N-dealkylation metabolite, relative percentage [12]: 6.3%; turnover in hepatocytes [12]: low turnover; parent compound remaining postincubation ([12]; LC/MS relative percentage): 87.9%; piperidine N-dealkylation metabolite, relative percentage [13]: 32.4%; turnover in hepatocytes [13]: moderate turnover; parent compound remaining postincubation ([13]; LC/MS relative percentage): 65.8%; AUC (area under the curve) [10]: 0.027 µg·h/mL; CLp (plasma clearance) [10]: 7.38 L/h/kg; Vss (volume of distribution at steady-state) [10]: 36.9 L/kg; t1/2 (terminal phase plasma half-life) [10]: 4.02 h; in vivo clearance relative to hepatic blood flow (superhepatic clearance) [10]: > 100 % Qh |
| Cc1cccc(C(=O)N2CC3(CCN(Cc4c[nH]c5cc(F)ccc45)CC3)C2)c1 [Compound 32] | 0.06 | 0.14 | 92 | 0.49 | 0.14 | 18 | 0.882 | 2.77 | 10 | 18 | 91.2 | 87.0 | 12 |  |
| Cc1ccc(C(=O)N2CC3(CCN(Cc4c[nH]c5cc(F)ccc45)CC3)C2)cc1 [Compound 29] | 0.05 | 0.15 | 99 | 0.062 | 0.017 | 5 | 1.04 | 2.95 | 27 | 20 | 91.9 | 85.3 | 13 |  |
| Cc1ccc(C(=O)N2CC3(CCN(Cc4n[nH]c5cc(F)ccc45)CC3)C2)cc1C [Compound 6] |  |  | 90 | 0.15 | 0.043 | 15 |  |  | −4 | 3 | 89.4 | 83.1 | 25 |  |
| Cc1ccc(C(=O)N2CCC3(CCN(Cc4c[nH]c5cc(F)ccc45)CC3)C2)cc1C [Compound 42, (3,4-dimethylphenyl)(8-[(6-fluoro-1H-indol-3-yl)methyl)-2,8-diazaspiro[4.5]decan-2-yl)methanone] |  |  |  |  |  |  |  |  |  |  |  |  |  | % Inhibition at D4.4 ([3]; screened at Eurofins): 44% |
| Cc1ccc(C(=O)N2CC3(CCN(Cc4c[nH]c5cc(F)ccc45)CC3C)C2)cc1C (stereo not drawn) [Compound 13] |  |  | 85 | 0.99 | 0.27 |  |  |  |  |  | 90.5 | 88.2 |  |  |
| O=C(c1ccc(Cl)cc1Cl)N1CC2(CCN(Cc3c[nH]c4cc(F)ccc34)CC2)C1 [Compound 19] |  |  | 92 | 0.082 | 0.023 | 14 |  |  | 21 | 23 |  |  | 30 |  |
| O=C(c1cc(Cl)cc(Cl)c1)N1CC2(CCN(Cc3c[nH]c4cc(F)ccc34)CC2)C1 [Compound 28] |  |  | 49 |  |  |  |  |  |  |  |  |  |  |  |
| Cc1ccc(C(=O)N2CC3(CCN(Cc4c[nH]c5cc(F)ccc45)CC3)C2)cc1C [Compound 5] |  |  | 94 | 0.2 | 0.056 | 25 |  |  | 35 | 24 | 83.4 | 87.0 | 27 |  |
| Cc1ccc(C(=O)N2CC3(CCN(Cc4ccc(F)c(F)c4)CC3)C2)cc1C [Compound 4] | 0.01 | 0.03 | 88 | 2.79 | 0.25 | 8 | 1.01 | 3.55 | 21 | 9 | 95.3 | 88.9 | 9 | AUC (area under the curve) [10]: 0.0287 µg·h/mL; CLp (plasma clearance) [10]: 6.96 L/h/kg; Vss (volume of distribution at steady-state) [10]: 5.52 L/kg; t1/2 (terminal phase plasma half-life) [10]: 1.05 h; in vivo clearance relative to hepatic blood flow (superhepatic clearance) [10]: > 100 % Qh |
| COc1ncc(CN2CCC3(CC2)CN(C(=O)c2ccc(C)c(C)c2)C3)cc1F [Compound 10] |  |  |  |  |  |  |  |  |  |  |  |  |  | inhibition at 10 µM [3]: 66% |
| Cc1ccc(C(=O)N2CC3(CCN(Cc4c[nH]c5cc(F)ccc45)C(C)C3)C2)cc1C (stereo not drawn) [Compound 14] |  |  | 89 | 1.92 | 0.53 |  |  |  |  |  |  |  |  |  |
| Cc1ccc(S(=O)(=O)N2CC3(CCN(Cc4c[nH]c5cc(F)ccc45)CC3)C2)cc1 [Compound 34] |  |  | 94 | 0.12 | 0.033 | 17 |  |  | 47 | 50 |  |  | 49 |  |
| Cc1ccc(C(=O)N2CC3(CCN(Cc4cn(C)c5ccccc45)CC3)C2)cc1C [Compound 12] |  |  |  |  |  |  |  |  |  |  |  |  |  | IC50 [3]: 0.28 µM; Ki [3]: 0.076 µM; inhibition at 10 µM [3]: 92%; inhibition at 10 µM ([4]; read-out: % Inhibition at 10 μM D2S): 24%; inhibition at 10 µM ([7]; read-out: % Inhibition at 10 μM D1): 27%; inhibition at 10 µM ([8]; read-out: % Inhibition at 10 μM D2L): 16%; solubility at 18 h ([9]; pH 2.2, aqueous buffer): 88.3 µM (≈ 35.5 µg/mL); solubility at 18 h ([9]; pH 6.8, aqueous buffer): 87.4 µM (≈ 35.1 µg/mL); inhibition at 10 µM ([11]; read-out: % Inhibition at 10 μM D3): 19% |
| Cc1ccc(C(=O)N2CC3(CCN(Cc4ccc(Cl)c(Cl)c4)CC3)C2)cc1C [Compound 9] |  |  | 91 | 0.081 | 0.022 | 25 |  |  | 24 | 24 | 84.2 | 31.6 | 62 |  |
